The compounds below were run against T1, hFXR (Homo sapiens, UniProt Q96RI1) (assay: In Vitro FXR Assay (TK): TK-ECRE-luc reporter in transfected CV-1 cells). Conditions: 18 hrs, luminescence, maximum efficacy of <25% of the Fexarmine control classified as '+'.
T1 construct: expressed in transfected cells; host or cells: CV-1 cells
T1 sequence (Q96RI1 1-486): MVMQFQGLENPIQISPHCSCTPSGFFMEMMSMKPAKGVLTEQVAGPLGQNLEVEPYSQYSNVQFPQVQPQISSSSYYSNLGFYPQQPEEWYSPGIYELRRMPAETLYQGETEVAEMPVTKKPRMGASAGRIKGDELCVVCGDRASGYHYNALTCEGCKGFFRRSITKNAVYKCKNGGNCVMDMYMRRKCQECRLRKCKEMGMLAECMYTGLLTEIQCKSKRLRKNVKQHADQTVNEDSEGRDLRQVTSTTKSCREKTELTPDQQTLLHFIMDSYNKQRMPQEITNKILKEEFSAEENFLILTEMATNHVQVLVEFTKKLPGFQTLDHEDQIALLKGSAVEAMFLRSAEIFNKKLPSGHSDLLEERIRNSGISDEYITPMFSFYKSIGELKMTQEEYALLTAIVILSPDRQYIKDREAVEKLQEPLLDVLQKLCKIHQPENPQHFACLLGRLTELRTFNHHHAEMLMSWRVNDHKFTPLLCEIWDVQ
T1 sequence (P19793 1-462 partner): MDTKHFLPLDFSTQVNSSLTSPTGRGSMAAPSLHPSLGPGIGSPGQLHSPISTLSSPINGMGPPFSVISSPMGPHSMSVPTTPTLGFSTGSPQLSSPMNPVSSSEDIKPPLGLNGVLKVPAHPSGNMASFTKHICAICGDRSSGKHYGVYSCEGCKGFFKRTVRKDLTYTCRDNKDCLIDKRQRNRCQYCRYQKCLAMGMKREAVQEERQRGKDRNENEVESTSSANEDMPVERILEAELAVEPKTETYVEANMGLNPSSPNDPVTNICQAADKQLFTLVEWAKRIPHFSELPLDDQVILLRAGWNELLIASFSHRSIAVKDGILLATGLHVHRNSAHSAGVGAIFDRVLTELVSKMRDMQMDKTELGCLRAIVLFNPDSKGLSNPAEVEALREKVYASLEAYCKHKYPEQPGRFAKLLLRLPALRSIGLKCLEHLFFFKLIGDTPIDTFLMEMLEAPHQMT
Type: cell-based
In short: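 CV-1 cells transiently co-transfected with hFXR, hRXR, TK-ECRE-luc and pCMX-YFP plasmids in charcoal-stripped serum medium. Serially diluted compounds added, cells incubated 18 h at 37° C, then lysed and luminescence read.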

`COc1ccc(C23CCC(CN(c4cccc(-c5coc(C6CC6)n5)c4)C(=O)[C@H]4CC[C@H](OC(=O)NCCO)CC4)(CC2)CC3)cc1C` [Compound 6.45, 4-((3-(2-Cyclopropyloxazol-4-yl)phenyl) ((4-(4-methoxy-3-methylphenyl)bicyclo [2.2.2]octan-1-yl)methyl)carbamoyl) cyclohexyl trans-(2-hydroxyethyl) carbamate] and `CN(C)c1ccc(C23CCC(CN(c4cccc(-c5coc(C6CC6)n5)c4)C(=O)[C@H]4CC[C@H](OC(=O)NCCO)CC4)(CC2)CC3)cn1` [Compound 4.23, 4-((3-(2-Cyclopropyloxazol-4-yl)phenyl)((4-(6-(dimethylamino)pyridin-3-yl)bicyclo[2.2.2]octan-1-yl)methyl)carbamoyl)cyclohexyl trans-(2-hydroxyethyl)carbamate] cannot be ordered by EC50: ≤ 250 nM for the first, ≤ 250 nM for the second.

`COc1ncc(-c2cccc(N(C[C@H]3CC[C@H](c4ccc(OC)c(C)c4)CC3)C(=O)[C@H]3CC[C@H](OC(=O)N(C)C)CC3)c2)s1` [Compound 13, trans-4-(((trans-4-(4-Methoxy-3-methylphenyl)cyclohexyl)methyl)(3-(2-methoxythiazol-5-yl)phenyl)carbamoyl)cyclohexyl dimethylcarbamate] and `COCCCO[C@H]1CC[C@H](C(=O)N(C[C@H]2CC[C@H](c3ccc(OC)c(C)c3)CC2)c2cccc(-c3cnc(OC)s3)c2)CC1` [Compound 13.02, trans-N-((trans-4-(4-Methoxy-3-methylphenyl)cyclohexyl)methyl)-4-(3-methoxypropoxy)-N-(3-(2-methoxythiazol-5-yl)phenyl) cyclohexanecarboxamide] cannot be ordered by EC50: ≤ 250 nM for the first, ≤ 250 nM for the second.

`COc1ccc([C@H]2CC[C@H](CN(c3cc(-c4coc(C5CC5)n4)ccn3)C(=O)[C@H]3CC[C@H](OC(=O)N4CC(C(C)(C)C)C4)CC3)CC2)nc1C` [Compound 7.103, trans-4-((4-(2-Cyclopropyloxazol-4-yl)pyridine-2-yl)((trans-4-(5-methoxy-6-methylpyridin-2-yl)cyclohexyl)methyl)carbamoyl)cyclohexyl 3-(tert-butyl)azetidine-1-carboxylate] and `COc1ccc([C@H]2CC[C@H](CN(c3cc(-c4coc(C5CC5)n4)ccn3)C(=O)[C@H]3CC[C@H](OC(=O)NC(C)CO)CC3)CC2)nc1C` (stereo partly drawn) [Compound 6.71, trans-4-((4-(2-Cyclopropyloxazol-4-yl)pyridin-2-yl)((trans-4-(5-methoxy-6-methylpyridin-2-yl)cyclohexyl)methyl)carbamoyl)cyclohexyl (1-hydroxypropan-2-yl)carbamate] cannot be ordered by EC50: ≤ 250 nM for the first, ≤ 250 nM for the second.

`COc1ccc([C@H]2CC[C@H](CN(c3cc(-c4cnn(C(C)C)c4)ccn3)C(=O)[C@H]3CC[C@H](CC(=O)O)CC3)CC2)cc1C#N` [Compound 17.26, 2-(trans-4-(((trans-4-(3-Cyano-4-methoxyphenyl)cyclohexyl)methyl)(4-(1-isopropyl-1H-pyrazol-4-yl)pyridin-2-yl)carbamoyl)cyclohexyl)acetic acid] and `COc1ccc([C@H]2CC[C@H](CN(c3cc(-c4cnn(C(C)C)c4)ccn3)C(=O)[C@H]3CC[C@H](OC(=O)N4CCOCC4)CC3)CC2)cc1C#N` [Compound 6.37, trans-4-(((trans-4-(3-Cyano-4-methoxyphenyl)cyclohexyl)methyl)(4-(1-isopropyl-1H-pyrazol-4-yl)pyridin-2-yl)carbamoyl)cyclohexyl morpholine-4-carboxylate] cannot be ordered by EC50: ≤ 250 nM for the first, ≤ 250 nM for the second.

`COc1ccc([C@H]2CC[C@H](CN(c3cccc(-c4cnc(C5CC5)s4)c3)C(=O)[C@H]3CC[C@H](CC(=O)O)CC3)CC2)cc1C` [Compound 19, 2-(trans-4-((3-(2-Cyclopropylthiazol-5-yl)phenyl)((trans-4-(4-methoxy-3-methylphenyl)cyclohexyl)methyl)carbamoyl)cyclohexyl)acetic acid] and `CN(C)c1ccc([C@H]2CC[C@H](CN(c3cccc(-c4cnc(C5CC5)s4)c3)C(=O)[C@H]3CC[C@H](CC(=O)O)CC3)CC2)cn1` [Compound 20.06, 2-(trans-4-((3-(2-Cyclopropylthiazol-5-yl)phenyl)((trans-4-(6-(dimethylamino)pyridin-3-yl)cyclohexyl)methyl)carbamoyl)cyclohexyl)acetic acid] cannot be ordered by EC50: ≤ 250 nM for the first, ≤ 250 nM for the second.

`COC(=O)CC1CN(C(=O)O[C@H]2CC[C@H](C(=O)N(C[C@H]3CC[C@H](c4ccc(OC)c(C)c4)CC3)c3cccc(-c4cnn(C5CC5)c4)c3)CC2)C1` [Compound 7.41, trans-4-((3-(1-Cyclopropyl-1H-pyrazol-4-yl)phenyl)((trans-4-(4-methoxy-3-methylphenyl)cyclohexyl)methyl)carbamoyl)cyclohexyl 3-(2-methoxy-2-oxoethyl)azetidine-1-carboxylate] and `COC(=O)CNC(=O)O[C@H]1CC[C@H](C(=O)N(C[C@H]2CC[C@H](c3ccc(OC)c(C)c3)CC2)c2cccc(-c3cnn(C4CC4)c3)c2)CC1` [Compound 7.17, Methyl 2-((((trans-4-((3-(1-cyclopropyl-1H-pyrazol-4-yl)phenyl)((trans-4-(4-methoxy-3-methylphenyl)cyclohexyl)methyl)carbamoyl)cyclohexyl)oxy)carbonyl)amino)acetate] cannot be ordered by EC50: ≤ 250 nM for the first, ≤ 250 nM for the second.

`COc1ccc([C@H]2CC[C@H](CN(c3cccc(-c4cnn(C5CC5)c4)c3)C(=O)[C@H]3CC[C@H](OC(=O)NC4CNC4)CC3)CC2)cc1C` [Compound 4.18, trans-4-((3-(1-Cyclopropyl-1H-pyrazol-4-yl)phenyl)((trans-4-(4-methoxy-3-methylphenyl)cyclohexyl)methyl)carbamoyl)cyclohexyl azetidin-3-ylcarbamate] and `CNC(=O)O[C@H]1CC[C@H](C(=O)N(CC23CCC(c4ccc(OC)c(C)c4)(CC2)CC3)c2cccc(-c3cnn(C4CC4)c3)c2)CC1` [Compound 1.05, 4-((3-(1-Cyclopropyl-1H-pyrazol-4-yl)phenyl)((4-(4-methoxy-3-methylphenyl)bicyclo[2.2.2]octan-1-yl)methyl)carbamoyl)cyclohexyl trans-methylcarbamate] cannot be ordered by EC50: ≤ 250 nM for the first, ≤ 250 nM for the second.

Compared with `COc1ccc(CO[C@H]2CC[C@H](C(=O)N(C[C@H]3CC[C@H](c4ccc(OC)c(C)c4)CC3)c3cccc(-c4cnc(OC)s4)c3)CC2)cc1` [Compound 18.12, trans-N-((trans-4-(4-Methoxy-3-methylphenyl)cyclohexyl)methyl)-4-((4-methoxybenzyl)oxy)-N-(3-(2-methoxythiazol-5-yl)phenyl) cyclohexanecarboxamide], `COC(=O)C12CCC(C(=O)N(C[C@H]3CC[C@H](c4ccc(OC)c(C)c4)CC3)c3cccc(-c4cnc(OC)s4)c3)(CC1)CC2` [Compound 18.10, Methyl 4-(((trans-4-(4-methoxy-3-methylphenyl)cyclohexyl)methyl)(3-(2-methoxythiazol-5-yl)phenyl)carbamoyl)bicyclo[2.2.2]octane-1-carboxylate] is lower in EC50: ≥ 1000 nM for the first, ≤ 250 nM for the second.

`COc1ccc([C@H]2CC[C@H](CN(c3cc(-c4cnn(C(C)C)c4)ccn3)C(=O)[C@H]3CC[C@H](OC(=O)N4CC(S(C)(=O)=O)C4)CC3)CC2)nc1C` [Compound 6.39, trans-4-((4-(1-Isopropyl-1H-pyrazol-4-yl)pyridin-2-yl)((trans-4-(5-methoxy-6-methylpyridin-2-yl)cyclohexyl)methyl)carbamoyl)cyclohexyl 3-(methylsulfonyl)azetidine-1-carboxylate] and `COc1ccc([C@H]2CC[C@H](CN(c3cc(-c4cnn(C(C)C)c4)ccn3)C(=O)[C@H]3CC[C@H](OC(=O)NC4CC4)CC3)CC2)nc1C` [Compound 6.31, trans-4-((4-(1-Isopropyl-1H-pyrazol-4-yl)pyridin-2-yl)((trans-4-(5-methoxy-6-methylpyridin-2-yl)cyclohexyl)methyl)carbamoyl)cyclohexyl cyclopropylcarbamate] cannot be ordered by EC50: ≤ 250 nM for the first, ≤ 250 nM for the second.

`COc1ccc([C@H]2CC[C@H](CN(c3cc(-c4cnc(C5CC5)s4)ccn3)C(=O)[C@H]3CC[C@H](OC(=O)N4CC(O)C4)CC3)CC2)cc1C#N` [Compound 7.08, trans-4-(((trans-4-(3-Cyano-4-methoxyphenyl)cyclohexyl)methyl)(4-(2-cyclopropylthiazol-5-yl)pyridin-2-yl)carbamoyl)cyclohexyl 3-hydroxyazetidine-1-carboxylate] and `CNC(=O)O[C@H]1CC[C@H](C(=O)N(C[C@H]2CC[C@H](c3ccc(OC)c(C)n3)CC2)c2cccc(-c3ccc(N(C)C)nc3)c2)CC1` [Compound 5.41, trans-4-((3-(6-((Dimethylamino)pyridine-3-yl)phenyl)((trans-4-(5-methoxy-6-methylpyridin-2-yl)cyclohexyl)methyl)carbamoyl)cyclohexyl methylcarbamate] cannot be ordered by EC50: ≤ 250 nM for the first, ≤ 250 nM for the second.
